Laboratory results taken from patent US9056081B2, “Compositions for treating pseudomonas infection” (Universitätsklinikum Hamburg-Eppendorf, priority 2009, dated 2015).
Entries after “also recorded” stand apart in the source; their conditions may differ. Like-named read-outs stand apart in the source and are kept apart here. Ends that are not written are not given here.

Legend:
[1] = target: PA-IL (Pseudomonas aeruginosa, UniProt Q05097); assay: cell-based; assay type: cell-based
Procedure: (§1) Experiments were carried out on human nasal conchae, obtained during routine surgery from the ENT Hospital of the University Medical Center Hamburg-Eppendorf, Hamburg, Germany. For the measurement of CBF, small pieces of nasal mucosa were punched out of the nasal conchae by a special biopsy punch (Stiefel Laboratorium GmbH, Offenbach, Germany) (4-6 pieces per nasal conchae) and transferred to Petri dishes (Greiner Bio-One, Kremsmünster, Austria) containing RPMI-1640 and L-Glutamine medium (Gibco, Karlsruhe, Germany) supplemented with 10% fetal calf serum (Gibco, Karlsruhe, Germany), 1% Penicillin-Streptomycin (10 000 U/ml, Gibco, Karlsruhe, Germany) and 0.9% Amphotericin B (250 UG/ml, Gibco, Karlsruhe, Germany) as a fungicide. The specimens were maintained under standard cell culture conditions at 37° C. in 5% CO2 for up to two weeks.
(§2) The aim of this experiment was to compare the efficiency of different sugar solutions and peptides to block PA-IL and PA-IIL binding to cilia in tissue sections and in vitro airway cultures by measuring their ciliary beat frequency (CBF). Actively beating ciliated cells were viewed trough phase-contrast optics of a Leica DM IRB HC inverted microscope (Leica, Bensheim, Germany) placed on a Micro-g vibration isolation table (TMC, Peabody, Mass.). During the experiments, the cultured tissue samples were maintained at a constant temperature (35±0.5° C.) by a thermostatically controlled heated stage. The signals were measured and analysed by a computer system incorporating a special purpose MPV-CBF software (Software-Entwicklung Radmann, Solms, Germany). The CBF was calculated by collecting data from 512 readings (10 s) and by performing Fourier analysis (Mewe et al. 2005). Five of these Fourier transforms taken per nasal conchae piece were measured.
The influence of monosaccharides and several peptides (obtained from Centre for Molecular Neurobiology, Hamburg, Germany) alone and in combination with PA-IL or PA-IIL on CBF was also investigated. The monosaccharides ([…]) were pre-incubated with 10 μg/ml PA-IL and 10 μg/ml PA-IIL, respectively, for 30 min at room temperature, at which they were agitated the for whole time and then added to the medium and the CBF was monitored over a 24 h period. Measurement was carried out after 0, 1, 2, 3, 5, 8, 24 h incubation. Negative controls were maintained in medium with no additions made. Positive controls were maintained in medium with PA-IL or PA-IIL, respectively.
In CBF analysis, the influence of monosaccharides (D-galactose and L(−)-fucose) and the HNK-1 mimetic peptide pHNK-1 alone and in combination with PA-IL on CBF was investigated.

[2] = Storage stability of monosaccharide solutions (data not shown); assay type: physicochemical; conditions: stored at room temperature or at 4° C. dissolved in an aqueous solution
[3] = test system: human airway cilia; assay: Ciliary beat frequency (CBF) of human nasal mucosa, substances alone without lectin; assay type: cell-based; conditions: no lectin, over 24 h; for effect on the ciliary beat frequency (CBF), monosaccharide alone: 0.2 M monosaccharide
Procedure: The influence of monosaccharides and several peptides (obtained from Centre for Molecular Neurobiology, Hamburg, Germany) alone and in combination with PA-IL or PA-IIL on CBF was also investigated. The monosaccharides (0.2 M) and peptides (0.968 mM) were pre-incubated with 10 μg/ml PA-IL and 10 μg/ml PA-IIL, respectively, for 30 min at room temperature, at which they were agitated the for whole time and then added to the medium and the CBF was monitored over a 24 h period. […]

[4] = target: T1, PA-IIL (Pseudomonas aeruginosa, UniProt Q9HYN5); assay: cell-based; assay type: cell-based
Procedure: as §1, §2
(§3) The influence of monosaccharides and several peptides (obtained from Centre for Molecular Neurobiology, Hamburg, Germany) alone and in combination with PA-IL or PA-IIL on CBF was also investigated. The monosaccharides (0.2 M) and peptides (0.968 mM) were pre-incubated with 10 μg/ml PA-IL and 10 μg/ml PA-IIL, respectively, for 30 min at room temperature, at which they were agitated the for whole time and then added to the medium and the CBF was monitored over a 24 h period. Measurement was carried out after 0, 1, 2, 3, 5, 8, 24 h incubation. Negative controls were maintained in medium with no additions made. Positive controls were maintained in medium with PA-IL or PA-IIL, respectively.
For CBF analysis monosaccharides (D-galactose and L(−)-fucose) and peptides were pre-incubated with PA-IIL and the CBF was determined.

[5] = test system: PA-IL and PA-IIL; assay: CBF assay: simultaneous application of PA-IL and PA-IIL; assay type: cell-based, Pseudomonas aeruginosa
Procedure: Experiments were carried out on human nasal conchae, obtained during routine surgery from the ENT Hospital of the University Medical Center Hamburg-Eppendorf, Hamburg, Germany. […]
The aim of this experiment was to compare the efficiency of different sugar solutions and peptides to block PA-IL and PA-IIL binding to cilia in tissue sections and in vitro airway cultures by measuring their ciliary beat frequency (CBF). […] The signals were measured and analysed by a computer system incorporating a special purpose MPV-CBF software (Software-Entwicklung Radmann, Solms, Germany). The CBF was calculated by collecting data from 512 readings (10 s) and by performing Fourier analysis (Mewe et al. 2005). Five of these Fourier transforms taken per nasal conchae piece were measured.
as §3, with “Measurement was carried out after 0, 1, 2, 3, 5, 8, 24 h incubation. Negative controls were maintained in medium with no additions made. Positive controls were maintained in medium with PA-IL or PA-IIL, respectively.” left out

[6] = target: T1, PA-IIL; assay type: cell-based; conditions: 0.121-0.484 mM peptide co-incubated with 10 μg/ml PA-IIL, 24 h
[7] = 0.2 M monosaccharide co-incubated with 10 μg/ml PA-IL, 24 h
[8] = 0.2 M monosaccharide co-incubated with 10 μg/ml PA-IIL, 24 h
[9] = 0.121 mM peptide co-incubated with 10 μg/ml PA-IL, 24 h
[10] = 0.242 mM peptide co-incubated with 10 μg/ml PA-IL, 24 h

T1 sequence (Q9HYN5 entry or part of it): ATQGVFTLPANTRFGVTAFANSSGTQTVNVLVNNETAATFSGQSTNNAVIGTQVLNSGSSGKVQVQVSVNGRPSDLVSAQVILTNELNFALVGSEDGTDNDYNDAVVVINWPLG
Chain of PA-IL (Q05097 whole entry): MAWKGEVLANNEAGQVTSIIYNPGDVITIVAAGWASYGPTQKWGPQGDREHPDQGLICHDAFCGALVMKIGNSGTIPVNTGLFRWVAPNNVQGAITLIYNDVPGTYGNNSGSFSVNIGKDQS

Compound | effect on the CBF-decreasing effect of PA-IL [1, 7] | stability and inhibitory potency of the solution on storage [2] | effect on the ciliary beat frequency (CBF), monosaccharide alone [3] | effect on the CBF-decreasing effect of PA-IIL [4, 8] | effect on the CBF-decreasing effect of PA-IL [1] | effect on the CBF-decreasing effect of PA-IL [1, 9] | effect on the CBF-decreasing effect of PA-IL [1, 10] | effect on the CBF-decreasing effect of PA-IL ([1]; listed as scrambled version of the peptide pHNK-1) | effect on the CBF-decreasing effect of PA-IIL [4] | IC50 [1] | effect on the decrease of CBF after simultaneous application of PA-IL and PA-IIL [5] | effect on the CBF-decreasing effect of PA-IIL [6] | effect on the ciliary beat frequency (CBF), peptide alone ([3]; 0.968 mM peptide) | IC50 [4]
O=C[C@H](O)[C@@H](O)[C@@H](O)[C@H](O)CO [D-galactose, reference compound] | reduced the CBF-decreasing effect of the PA lectin; also recorded: could be effectively reduced | not stable and loose their inhibitory potency | had no effect on the CBF | no inhibition could be achieved; also recorded: resulted in a decline of the CBF within 24 h; also recorded: did not inhibit | – | – | – | – | – | – | – | – | – | –
TVFHFRLL [sHNK-1] | – | – | – | – | also reduced the CBF-decreasing effect of PA-IL; also recorded: reduced the CBF-decreasing effect of the PA lectin; also recorded: resulted in a continuous decrease of the CBF within 24 h | resulted in a continuous decrease of the CBF within 24 h | resulted in a continuous decrease of the CBF within 24 h | also reduced the CBF-decreasing effect of PA-IL | resulted in a continuous decrease of the CBF within 24 h; also recorded: none of the other tested peptides (sHNK-1, pLeX, sLeX) had any consequence; also recorded: had no effect | – | – | – | – | –
FLHTRLFV [pHNK-1] | – | – | – | – | blocked the CBF-decreasing effect of PA-IL; also recorded: reduced the CBF-decreasing effect of the PA lectin; also recorded: could be reduced | resulted in a continuous decrease of the CBF within 24 h | resulted in a continuous decrease of the CBF within 24 h | – | inhibited the CBF-decreasing effect of PA-IIL; also recorded: reduced the CBF-decreasing effect of the PA lectin; also recorded: blocked | 484 µM | caused an inhibition of lectin induced suppression of CBF; also recorded: could be inhibited | resulted in a continuous decrease of the CBF within 24 h | had no effect on the CBF | 968 µM
C[C@H](O)[C@@H](O)[C@@H](O)[C@H](O)C=O [L(−)-fucose, reference compound] | resulted in a continuous decrease of the CBF within 24 h; also recorded: did not inhibit | not stable and loose their inhibitory potency | had no effect on the CBF | could be reduced; also recorded: reduced the CBF-decreasing effect of the PA lectin | – | – | – | – | – | – | – | – | – | –
